In patent US6569880B2, “Bis(benzimidazole) derivatives serving as potassium blocking agents” (Neurosearch A/S, priority 1998, dated 2003):
Structures can show the parent of a compound that is named as a salt.

melting point	SMILES
145 to 147 °C	Nc1nc2ccccc2n1CCCCCCn1c(N)nc2ccccc21 (as salt: HCl) [Compound 1b, 1,6-Bis(2-aminobenzimidazol-1-yl)hexane]
220 °C (dec.)	Nc1nc2ccccc2n1CCCn1c(N)nc2ccccc21 [Compound 1d, 1,3-Bis(2-aminobenzimidazol-1-yl)propane]
257 to 258 °C	Nc1nc2ccccc2n1CCn1c(N)nc2ccccc21 [Compound 1e, 1,2-Bis(2-aminobenzimidazol-1-yl)ethane]
